Data taken from US20130217664A1, “NOVEL COMPOUNDS USEFUL FOR THE TREATMENT OF DEGENERATIVE AND INFLAMMATORY DISEASES” (priority 2012, published 2013).

Columns and labels:
[1] = tested on: pSTAT1(2)-luciferase reporter in HeLa cells triggered with human OSM; assay: JAK-STAT signalling assay; assay type: cell-based; conditions: HeLa cells, pSTAT1(2)-luciferase reporter, human OSM 33 ng/mL; read-out: JAK-STAT IC50
Method in brief: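 HeLa cells transiently co-transfected with pSTAT1(2)-luciferase and LacZ control reporter, preincubated with compound 60 min, then stimulated with human OSM (33 ng/mL final) overnight at 37 °C. Luciferase read by luminescence; percent inhibition from vehicle and no-trigger controls, EC50 from dose-response.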

[2] = molecular target: T1, human JAK1 (Homo sapiens, UniProt P23458); assay: JAK1 inhibition assay (polyGT substrate / Ulight-JAK1 peptide); assay type: biochemical; conditions: recombinant human JAK1 catalytic domain; polyGT or Ulight-JAK1 peptide assay
T1 construct: catalytic domain, amino acids 866-1154; catalog number PV4774; purchased Invitrogen PV4774
Method in brief: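 Two formats. PolyGT radiometric: 45 min at 30 °C, stopped with phosphoric acid, counted as cpm. Ulight-JAK1 peptide: 60 min at room temperature, stopped with Eu-anti-phosphotyrosine/EDTA, read as RFU. Percent inhibition normalised to vehicle and 10 μM staurosporine.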

[3] = tested on: CTLL-2 cell line; assay: CTLL2 viability assay; assay type: cell-based; conditions: Mus musculus, IL-2 dependent CTLL2 viability, 24 h, ATP-lite
Excerpt: The protocol describes the methods to analyse the activity of compounds on their ability to sustain the IL2-dependent viability of CTLL2.
Final DMSO concentration was 0.1%.

[4] = tested on: BA/F3 cell line; assay: BA/F3 viability assay; conditions: Mus musculus, BaF3, 48 h, read-out: BA/F3 IC50
[5] = molecular target: T2, human TYK2 (Homo sapiens, UniProt P29597); assay: TYK2 inhibition assay; assay type: biochemical; conditions: recombinant human TYK2 catalytic domain, polyGT substrate
T2 construct: catalytic domain (amino acids 871-1187; catalog number 08-147); purchased Carna Biosciences 08-147
T2 sequence (P29597 871-1187): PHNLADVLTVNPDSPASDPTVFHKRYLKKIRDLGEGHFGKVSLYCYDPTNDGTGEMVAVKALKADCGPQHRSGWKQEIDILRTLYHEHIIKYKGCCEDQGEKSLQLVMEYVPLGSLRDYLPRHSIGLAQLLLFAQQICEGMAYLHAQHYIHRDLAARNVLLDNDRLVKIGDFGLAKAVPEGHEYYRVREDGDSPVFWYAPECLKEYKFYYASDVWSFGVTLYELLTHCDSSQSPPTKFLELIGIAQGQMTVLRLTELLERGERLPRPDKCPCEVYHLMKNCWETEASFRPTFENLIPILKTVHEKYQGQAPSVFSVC
Method in brief: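 Radiometric kinase reaction run 90 min at 30 °C, stopped with phosphoric acid, washed and scintillation-counted.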

[6] = molecular target: T3, human JAK3 (Homo sapiens, UniProt P52333); assay: JAK3 inhibition assay; assay type: biochemical; conditions: recombinant human JAK3 catalytic domain; polyGT substrate
T3 construct: catalytic domain (amino acids 781-1124; catalog number PV3855); purchased Invitrogen PV3855
Method in brief: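 Radiometric kinase assay: 0.5 ng JAK3 with 2.5 μg polyGT in Tris pH 7.5/MgCl2 buffer, 1 μM ATP plus 0.25 μCi 33P-γ-ATP, 1% DMSO, 45 min at 30 °C, stopped with phosphoric acid.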

T3 sequence (P52333 781-1124): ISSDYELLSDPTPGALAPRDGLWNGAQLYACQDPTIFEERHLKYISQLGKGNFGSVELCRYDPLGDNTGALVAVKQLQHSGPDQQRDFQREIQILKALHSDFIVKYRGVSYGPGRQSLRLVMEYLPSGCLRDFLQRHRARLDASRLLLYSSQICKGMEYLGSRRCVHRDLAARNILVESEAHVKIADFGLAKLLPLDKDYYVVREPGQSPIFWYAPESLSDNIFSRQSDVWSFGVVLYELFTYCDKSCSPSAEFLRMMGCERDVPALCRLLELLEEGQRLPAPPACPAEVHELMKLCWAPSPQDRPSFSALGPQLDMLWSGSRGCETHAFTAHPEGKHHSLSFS
T1 sequence (P23458 866-1154): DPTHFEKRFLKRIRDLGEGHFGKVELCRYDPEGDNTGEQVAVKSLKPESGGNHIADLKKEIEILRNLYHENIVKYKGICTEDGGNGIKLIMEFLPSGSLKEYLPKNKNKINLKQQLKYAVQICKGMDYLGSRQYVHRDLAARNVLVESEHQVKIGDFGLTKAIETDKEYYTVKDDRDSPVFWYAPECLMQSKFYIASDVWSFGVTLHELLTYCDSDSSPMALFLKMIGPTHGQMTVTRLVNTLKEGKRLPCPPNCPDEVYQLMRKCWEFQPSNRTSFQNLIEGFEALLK

Row | IC50 [1] | IC50 [2] | IC50 [4] | IC50 [5] | IC50 [6] | Compound | IC50 [3]
1 | 1 to 500 nM | 0.01 to 100 nM | 1000 to 5000 nM | 0.01 to 100 nM | 101 to 500 nM | CN(c1cc2c(cn1)ncn2C)c1ccc(-c2cnn(C)c2)cc1OC(F)F [Compound 274, N-(2-(Difluoromethoxy)-4-(1-methyl-1H-pyrazol-4-yl)phenyl)-N,1-dimethyl-1H-imidazo[4,5-c]pyridin-6-amine] | > 1000 nM
2 | > 1000 nM | 0.01 to 100 nM | > 5000 nM | 101 to 500 nM | > 1000 nM | CCc1cc(-c2cnn(C)c2)ncc1N(C)c1cc2c(cn1)ncn2C [Compound 280, N-(4-Ethyl-6-(1-methyl-1H-pyrazol-4-yl)pyridin-3-yl)-N,1-dimethyl-1H-imidazo[4,5-c]pyridin-6-amine] | > 1000 nM
